Test results reported in PubChem BioAssay AID489035 (Sanford-Burnham Center for Chemical Genomics, 2010).
Active and inactive are the calls of the source. The rule behind the calls is not given here.

Each molecule was assayed on Jurkat NF-kB reporter, TCR-induced, luciferase luminescence (assay: T-cell NF-kB luciferase reporter inhibition – Jurkat cells, luminescence, dose response (AID 489035)).

| Compound | IC50 |
| --- | --- |
| CCn1ncc(C2=NOC(C(=O)NCc3ccccc3)C2)c1C (stereo unspecified) | < 0.16 µM |
| CCOc1cc(C(=O)N/N=C/C(Br)=C/c2ccccc2)cc(OCC)c1OCC | > 80 µM (inactive) |
| CC1(C)Cc2c(sc(NC(=O)COc3cccc4ccccc34)c2C#N)C(C)(C)N1 | 13.5 µM |
| CCn1c2ccccc2c2cc(NC(=O)c3cc(OC)cc(OC)c3)ccc21 | > 80 µM (inactive) |
| COc1ccc(Nc2cc(C)nc(-n3nc(C)cc3C)n2)cc1 | > 80 µM (inactive) |
| COc1ccc(C(=O)/C(C#N)=N/Nc2ccc([N+](=O)[O-])cc2)cc1 | 9.52 µM |
| CCCCCCCCC[n+]1cccc2c3ccccc3ccc21 | 8.65 µM |
| CCOc1ccc(Nc2cc(C)nc(-n3nc(C)cc3C)n2)cc1 | > 80 µM (inactive) |
| Cc1oc(-c2ccc(Cl)cc2)nc1CS(=O)CC(=O)NCCCN1CCN(Cc2ccccc2)CC1 (stereo unspecified) | 26.4 µM (inactive) |
| COc1ccc(/C=N\NC(=O)c2ccccc2F)cc1COc1ccc(F)cc1F | > 80 µM (inactive) |
| Cc1cnc(NC(=O)c2ccc3c(c2)OCCO3)s1 | 1 µM |
| C/C=C(\C)C(=O)N[C@@H](c1ccccc1)[C@@H](O)C(=O)O[C@H]1C[C@@]2(O)[C@@H](OC(=O)c3ccccc3)C3[C@](C)(C(=O)[C@H](O)C(=C1C)C2(C)C)[C@@H](O)C[C@H]1OC[C@@]31OC(C)=O (stereo partly specified) | > 80 µM (inactive) |
| C#CC[N+](C)(C)CCCCCCCCCCCC | 9.77 µM |
| CN1/C(=C\C(=O)C[n+]2ccc3ccccc3c2)C(C)(C)c2ccccc21 | 38 µM (inactive) |
| COc1cccc(OC)c1C1=NCC(=O)Nc2c1oc1ccc(Br)cc21 | > 80 µM (inactive) |
| O=Cc1cc2ccccc2nc1SCc1ccc(Cl)c(Cl)c1 | > 80 µM (inactive) |
| O=C(N/N=C/c1c(O)ccc2ccccc12)c1ccc(Br)o1 | 60.7 µM (inactive) |
| CCOc1cccc(-c2nnc3n2N=C(c2cc(OC)ccc2OC)CS3)c1 | > 80 µM (inactive) |
| COc1cc(-c2noc(C)c2-c2ccc(N(C)C)nc2)cc(OC)c1OC | > 80 µM (inactive) |
| Brc1ccc2c(c1)C(C1=NCCN1)c1ccccc1CS2 (stereo unspecified) | > 80 µM (inactive) |
| Cc1c(C)c2cccnc2c2ncccc12 | 2.02 µM |
| Nc1nc(Cl)cc(N2CCC(c3cc(-c4ccc(Cl)cc4)n[nH]3)CC2)n1 | 1.87 µM |
| COc1ccc(-[n+]2c(-c3ccccc3)cc(-c3ccc(C)cc3)cc2-c2ccccc2)cc1 | 4.95 µM |
| Cn1nc([N+](=O)[O-])nc1Sc1nnc(-c2ccccc2)o1 | 7.97 µM |
| CN(C)c1ccc(-[n+]2c(-c3ccccc3)cc(-c3ccccc3)cc2-c2ccccc2)cc1 | 7.96 µM |
| Cc1cc(C)cc(NC(=O)c2cc(C)n(Cc3cccs3)c2C)c1 | 5.13 µM |

| Compound | IC50 |
| --- | --- |
| Cc1ccc(C(=O)c2cc([N+](=O)[O-])ccc2N2CCCCC2)cc1 | > 80 µM (inactive) |
| COc1ccc(OC)c(COC(=O)c2cc([N+](=O)[O-])ccc2N2CCOCC2)c1 | 71.8 µM (inactive) |
| COc1cccc(/C=N/Nc2ccc(C(=O)O)cc2)c1O | 0.28 µM |
| O=C(N/N=C(\c1ccccc1)c1cccnc1)c1cccc(F)c1 | 5.3 µM |
| CC(C)Oc1ccccc1C1CC(=O)Nc2cc3c(cc21)OCCO3 (stereo unspecified) | > 80 µM (inactive) |
| O=C(Nc1nc(-c2ccccn2)cs1)c1ccc(Cl)s1 | 2.64 µM |
| COC(=O)Nc1ccc(S(=O)(=O)N2c3ccccc3CCC2C)cc1 (stereo unspecified) | 26.6 µM (inactive) |
| CCOC(=O)c1[nH]c2c(c1C)C(=O)CC(c1ccco1)C2 (stereo unspecified) | > 80 µM (inactive) |
| O=C(c1ccc(Br)cc1)c1cc([N+](=O)[O-])ccc1N1CCOCC1 | 64.3 µM (inactive) |
| Cc1cc(-c2ccc(S(=O)(=O)N(C)c3ccc(C)c(C)c3)s2)on1 | > 80 µM (inactive) |
| C=CCn1c(SCc2c(C)noc2C)nc2ccccc2c1=O | 23 µM (inactive) |
| COc1cccc(/C=N/NC(=O)c2[nH]nc3c2CCc2ccccc2-3)c1O | 59.5 µM (inactive) |
| Oc1ccc(Nc2nc3ccccc3nc2Nc2ccc(O)cc2)cc1 | 2.09 µM |
| CC(=O)c1ccc(N2CCN(S(=O)(=O)c3ccc4c(c3)CC(C)N4C(=O)C3CC3)CC2)cc1 (stereo unspecified) | > 80 µM (inactive) |
| O=C(NCc1ccc2c(c1)OCO2)c1cc([N+](=O)[O-])ccc1N1CCOCC1 | > 80 µM (inactive) |
| CC[C@@]1(O)C(=O)OCc2c1cc1n(c2=O)Cc2cc3c(N)cccc3nc2-1 | < 0.16 µM |
| COc1ccc(C)c(Cn2c(-c3nonc3N)nc3ccccc32)c1 | > 80 µM (inactive) |
| O=C1C=CCC(/C=C/c2ccccc2)O1 (stereo unspecified) | 0.17 µM |
| CCOc1ccccc1N1CC(O)=C(c2nc3ccccc3s2)C1=N | 26.7 µM (inactive) |
| Nc1nc(-c2ccccc2)cc(N2CCCCC2)n1 | > 80 µM (inactive) |
| CC1=C([N+](=O)[O-])C(c2ccccc2)C2=C(N1)c1ccccc1C2=O (stereo unspecified) | 30.3 µM (inactive) |
| Cc1cc(C)cc(NS(=O)(=O)c2ccc(-c3cnc(C4CC4)o3)cc2)c1 | 20.5 µM (inactive) |
| O=C1c2cccc3cc([N+](=O)[O-])cc(c23)C(=O)N1CCN1CCCC1 | > 80 µM (inactive) |
| CC(C)Nc1ccc(C(CC(N)=O)NC(=O)Cc2ccc(Br)cc2)cc1[N+](=O)[O-] (stereo unspecified) | 1.71 µM |
| CCOC(=O)C(C)Oc1cccc2c(=O)n(CC(=O)NCc3ccc4c(c3)OCO4)ccc12 (stereo unspecified) | 9.88 µM |
| COc1ccccc1N1CCN(C(=O)c2cc(=O)c3cc(C)cc(C)c3o2)CC1 | 2.79 µM |

| Compound | IC50 |
| --- | --- |
| CCOc1ccccc1C1CC(=O)Nc2cc3c(cc21)OCO3 (stereo unspecified) | 67.1 µM (inactive) |
| CCOCCOC(=O)c1[nH]c2c(c1C)C(=O)CC(c1ccccc1)C2 (stereo unspecified) | > 80 µM (inactive) |
| CCCCCCCCCCCCCCCC[n+]1cccc(C(=O)N(CC)CC)c1 | 3.02 µM |
| COc1ccc(OC)c(NS(=O)(=O)c2ccc(N3CCCC3=O)cc2)c1 | > 80 µM (inactive) |
| Clc1cccc(Cl)c1OCCOCCNCc1ccccc1 | > 80 µM (inactive) |
| CCOC(=O)c1ccc2nc(Nc3nc4ccc(F)cc4s3)sc2c1 | 75.4 µM (inactive) |
| COc1ccc(OC)c(-c2nnc3n2N=C(c2ccc(OC)c(OC4CCCC4)c2)CS3)c1 | 15.9 µM |
| COc1ccc(Nc2nc3cc(C)ccc3cc2C#N)c(OC)c1 | > 80 µM (inactive) |
| COc1ccccc1-c1nnc2n1N=C(c1ccc(O)c(O)c1)CS2 | 7.43 µM |
| C/C(=N\NC(=O)c1ccc(Cl)c(Cl)c1)c1ccccn1 | 1.3 µM |
| COc1ccc(NC(=O)C(=O)NCC2CCCN2S(=O)(=O)c2ccc(C)cc2)cc1 (stereo unspecified) | > 80 µM (inactive) |
| COc1ccc(C(=O)N2CCN(c3ccc([N+](=O)[O-])c(NCCc4ccc(OC)c(OC)c4)c3)CC2)cc1 | > 80 µM (inactive) |
| COC(=O)c1ccc(C)c(NS(=O)(=O)c2ccc3c(c2)OCCO3)c1 | > 80 µM (inactive) |
| CC(Nc1ncnc2ccccc12)c1ccccc1 (stereo unspecified) | > 80 µM (inactive) |
| CCn1ncc(C2=NOC(C(=O)NCc3ccc(Cl)cc3)C2)c1C (stereo unspecified) | > 80 µM (inactive) |
| CNC[C@H](CC1CCCCC1)NC[C@H](Cc1ccccc1)NCCC12CC3CC(CC(C3)C1)C2 | 2.42 µM |
| CCN(CC)c1ccc(/C=C/c2ccc3ccc(OC)cc3[n+]2CC)cc1 | 51.9 µM (inactive) |
| COC(=O)Cc1[nH]n(-c2nc3ccccc3s2)c(=O)c1C(C)=Nc1ccc(OC)cc1 | 6.49 µM |
| C=CCNC(=S)N/N=C(\C)c1ccccn1 | 1.09 µM |
| CCOC(=O)N/N=C/c1c(C)nn(-c2cccc(C(F)(F)F)c2)c1Cl | > 80 µM (inactive) |
| CCOC(=O)c1[nH]c2c(c1C)C(=O)CC(c1ccc(F)cc1)C2 (stereo unspecified) | > 80 µM (inactive) |
| CC(C)(C)c1cc(C=C(C#N)C#N)cc(C(C)(C)C)c1O | > 80 µM (inactive) |
| Cc1ccccc1NS(=O)(=O)c1ccc(N2CCCC2=O)cc1 | 71.8 µM (inactive) |
| COc1cc(C(=O)OCCc2cc3ccccc3c(=O)o2)cc(OC)c1OC | 21.6 µM (inactive) |
| CC[n+]1cc(C)ccc1/C=C/c1ccc(N(C)C)cc1 | > 80 µM (inactive) |
| C/C(=N\NC(=O)c1cc(C)nc2ccccc12)c1ccccn1 | > 80 µM (inactive) |

| Compound | IC50 |
| --- | --- |
| CCOc1ccc(N/C(N)=N/c2nc(CSc3nnc(C)s3)cc(=O)[nH]2)cc1 | > 80 µM (inactive) |
| CC(C)n1c(CN(C)Cc2ccccc2)nc2c1c(=O)n(C)c(=O)n2C | > 80 µM (inactive) |
| COc1ccc(Nc2nc(-c3sc(C)nc3C)cs2)cc1 | 38.8 µM (inactive) |
| COc1ccc2c(c1)/C(=C/c1cnc[nH]1)C(=O)N2 | 6.51 µM |
| CCOC(=O)N1CCN(C(=O)C2CCCN(Cc3nc(-c4ccc(Cl)cc4)oc3C)C2)CC1 (stereo unspecified) | > 80 µM (inactive) |
| CCC1CCCCN1C(=O)c1cc(COc2ccc3ncccc3c2)on1 (stereo unspecified) | > 80 µM (inactive) |
| CC(=O)N(C)C1=C(N2CCOCC2)C(=O)c2ccccc2C1=O | 9.87 µM |
| CCOc1ccc2c(c1)sc(N)[n+]2Cc1cc(C)cc2cccnc12 | 7.8 µM |
| Cc1ccc2c(c1)Oc1ccc(NC(=O)CCl)cc1C(=O)N2 | 5.22 µM |
| O=[N+]([O-])c1nn(-c2ccc3c(c2)OCCO3)n(O)c1=Nc1ccccc1 | 1.05 µM |
| Cc1cc(=O)oc2cc(OCC3CC(c4ccccc4Cl)=NO3)ccc12 (stereo unspecified) | > 80 µM (inactive) |
| CCOc1ccc(-c2[nH]ncc2-c2ccc(OC)c(OC)c2)c(O)c1 | 28.4 µM (inactive) |
| O=S1(=O)Nc2c(ccc3cccnc23)-c2ccccc21 | 2.17 µM |
| CCCC[C@@H](C)C[C@@H](C)C(=O)N(C)[C@@H](CC(C)C)C(=O)N[C@H](C(=O)N(C)[C@H](C(=O)N1C[C@@H](O)C[C@H]1C(=O)N1C(=O)C=C[C@@H]1C)C(C)C)C(C)OC(C)=O (stereo partly specified) | 4.87 µM |
| O=C(N/N=C\c1c(O)ccc2ccccc12)c1ccc(S(=O)(=O)N2CCCCC2)cc1 | 0.98 µM |
| O=C(N/N=C/c1c(O)ccc2ccccc12)c1cccc(C(F)(F)F)c1 | 10.4 µM |
| CCCC(=O)NC(c1ccccc1Cl)c1ccc2cccnc2c1O (stereo unspecified) | 2.81 µM |
| Cc1ccc2nc(C)c(CN3CCN(c4ccc([N+](=O)[O-])cc4Cl)CC3)n2c1 | 26.6 µM (inactive) |
| O=C(O)c1ccc(N/N=C/c2ccc3c(c2)OCO3)cc1 | 2.78 µM |
| Oc1ccc2ccccc2c1N=Nc1ccccn1 | 1.96 µM |
| O=C(Nc1ccn(Cc2ccccc2F)n1)c1ccc(COc2ccc(Br)cc2)cc1 | > 80 µM (inactive) |
| Cc1ccc(S(=O)(=O)Nc2cccc(-c3ccc4nncn4n3)c2)cc1 | > 80 µM (inactive) |
| O=C1C=CC(O)(c2cc(=O)c3c(O)cc(O)cc3o2)C=C1 | 2.21 µM |
